Measured values taken from ChEMBL document CHEMBL1201862, “PubChem BioAssay data set” (2004).
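Briefly, cells in 96-well plates were exposed to five compound concentrations for 48 h, and endpoints were estimated by linear interpolation. GI50 is the concentration that inhibits growth by half.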 Active and inactive are the calls of the source. No stated cut-off is given here; in the data, active = GI50 up to about 1.1 µM and inactive = higher.

Legend:
Assay in all cases: NCI tumour cell line growth inhibition, 48 h
[1] = system: PC-3
[2] = system: ACHN
[3] = system: MCF7
[4] = system: SR
[5] = system: UACC-257
[6] = system: U-251
[7] = system: UACC-62
[8] = system: DU-145
[9] = system: NCI-H460
[10] = system: HCT-15
[11] = system: SW-620
[12] = system: SF-539
[13] = system: HT-29
[14] = system: MOLT-4
[15] = system: OVCAR-5
[16] = system: HCT-116
[17] = system: KM12
[18] = system: SNB-75
[19] = system: SK-OV-3

Measured: GI50

O=C(O)C1CC(C2CCCCN2)CN2CCCCC12 (stereo unspecified)
inactive: [1] > 100 µM | [2] > 100 µM | [3] > 100 µM | [4] > 100 µM | [5] > 100 µM | [6] > 100 µM | [7] > 100 µM | [8] > 100 µM | [9] > 100 µM | [11] > 100 µM | [12] 57.5 µM | [13] > 100 µM | [14] > 100 µM | [15] > 100 µM | [16] > 100 µM | [17] > 100 µM | [18] > 100 µM | [19] > 100 µM
> 100 µM: [10]

[N-]=[N+]=Nc1c([N+](=O)[O-])c(=O)n(-c2ccccc2)c2ccccc12
21.9 µM: [10]
inactive: [1] 16.6 µM | [2] 21.7 µM | [3] 20.7 µM | [4] 25.2 µM | [5] 34.4 µM | [6] 20.7 µM | [7] 14.3 µM | [8] 35.2 µM | [9] 30.6 µM | [11] 29.2 µM | [12] 25.5 µM | [13] 28.2 µM | [14] 21.4 µM | [15] > 100 µM | [16] 20.3 µM | [17] 26.7 µM | [18] 20.1 µM | [19] 57.9 µM

CC(C)C(=O)NCC[C@@H](CNC(=O)OC(C)(C)C)NC(=O)OC(C)(C)C
inactive: [1] > 100 µM | [2] > 100 µM | [3] > 100 µM | [4] > 100 µM | [5] > 100 µM | [6] > 100 µM | [7] > 100 µM | [8] > 100 µM | [9] > 100 µM | [11] > 100 µM | [12] > 100 µM | [13] > 100 µM | [14] > 100 µM | [15] > 100 µM | [16] > 100 µM | [17] > 100 µM | [18] > 100 µM | [19] > 100 µM
> 100 µM: [10]

C=CCNC(=S)NC=C(C(N)=O)C(N)=O
inactive: [1] > 100 µM | [2] > 100 µM | [3] > 100 µM | [4] > 100 µM | [5] > 100 µM | [6] > 100 µM | [7] > 100 µM | [8] > 100 µM | [9] > 100 µM | [11] > 100 µM | [12] > 100 µM | [13] > 100 µM | [14] > 100 µM | [15] > 100 µM | [16] > 100 µM | [17] > 100 µM | [18] > 100 µM | [19] > 100 µM
> 100 µM: [10]

O=C(CNc1ccccn1)Nn1cnc2ccc(S(=O)(=O)Nc3ccccn3)cc2c1=O
> 100 µM: [10]
inactive: [1] > 100 µM | [2] > 100 µM | [3] > 100 µM | [4] > 100 µM | [5] > 100 µM | [6] > 100 µM | [7] > 100 µM | [8] > 100 µM | [9] > 100 µM | [11] > 100 µM | [12] > 100 µM | [13] > 100 µM | [14] > 100 µM | [15] > 100 µM | [16] > 100 µM | [17] > 100 µM | [18] > 100 µM | [19] > 100 µM

CCOCCOC(=O)C1CCC(=O)N1CN(C(C)=O)c1cc(OC)ccc1OC (stereo unspecified)
inactive: [1] > 100 µM | [2] > 100 µM | [3] > 100 µM | [5] > 100 µM | [6] > 100 µM | [7] > 100 µM | [8] > 100 µM | [9] > 100 µM | [11] > 100 µM | [12] > 100 µM | [13] > 100 µM | [14] > 100 µM | [15] > 100 µM | [16] > 100 µM | [17] > 100 µM | [18] > 100 µM | [19] > 100 µM
> 100 µM: [10]
active: [4] 1 µM

N#Cc1ncc(C(Cl)Cl)nc1Cl
1.82 µM: [10]
inactive: [1] 1.8 µM | [2] 2.04 µM | [3] 1.94 µM | [4] 1.81 µM | [5] 1.53 µM | [6] 1.97 µM | [7] 2.17 µM | [8] 8.67 µM | [9] 1.81 µM | [11] 1.94 µM | [12] 1.73 µM | [13] 1.74 µM | [14] 3.37 µM | [15] 1.95 µM | [16] 1.67 µM | [17] 1.4 µM | [18] 2.29 µM | [19] 3.78 µM

COc1cc2cc(C(=O)N3CC(CCl)c4ccc(NCCN)cc43)[nH]c2c(OC)c1OC (stereo unspecified)
0.377 µM: [10]
active: [1] 0.117 µM | [2] 0.08 µM | [3] 0.0361 µM | [4] 0.0279 µM | [5] 0.251 µM | [6] 0.175 µM | [7] 0.111 µM | [8] 0.08 µM | [9] 0.0658 µM | [11] 0.151 µM | [12] 0.209 µM | [13] 0.145 µM | [14] 0.0575 µM | [15] 0.337 µM | [16] 0.217 µM | [17] 0.206 µM | [18] 0.232 µM | [19] 0.282 µM

O=C1NCC(CSc2nc3cc(C4CCCc5c4[nH]c4ccccc54)ccc3o2)N1 (stereo unspecified)
inactive: [1] 37.2 µM | [2] 34.2 µM | [3] 39.7 µM | [4] 14.7 µM | [5] 45.1 µM | [6] 51.5 µM | [7] 39.6 µM | [8] 56 µM | [9] 72.3 µM | [11] 39.4 µM | [12] 36.4 µM | [13] 21.8 µM | [14] 15.2 µM | [15] 61.8 µM | [16] 33.4 µM | [17] 56.4 µM | [18] > 100 µM | [19] > 100 µM
24.5 µM: [10]

CC1=CC(=O)/C(=C/n2c(=S)[nH]c3ccc([N+](=O)[O-])cc32)C(=O)O1
> 100 µM: [10]
inactive: [1] > 100 µM | [2] > 100 µM | [3] > 100 µM | [4] > 100 µM | [5] > 100 µM | [6] > 100 µM | [7] > 100 µM | [8] > 100 µM | [9] > 100 µM | [11] > 100 µM | [12] > 100 µM | [13] > 100 µM | [14] > 100 µM | [15] > 100 µM | [16] > 100 µM | [17] > 100 µM | [18] > 100 µM | [19] > 100 µM

CCOC(=O)c1[nH]cc(C)c1-c1c[nH]c2ccccc12
inactive: [1] 14 µM | [2] 23 µM | [3] 22.3 µM | [4] 1.82 µM | [5] 26.2 µM | [6] 19.7 µM | [7] 14.4 µM | [8] 45 µM | [9] 12.1 µM | [11] 27.9 µM | [12] 22.8 µM | [13] 21.6 µM | [14] 4.11 µM | [15] 39.7 µM | [16] 6.93 µM | [17] 42.6 µM | [18] 28.1 µM | [19] 32.3 µM
8.81 µM: [10]

O=C1CS(=O)(=O)C(c2cccc(Oc3ccccc3)c2)N1c1ccc(Cl)cc1 (stereo unspecified)
20.2 µM: [10]
inactive: [1] 17.9 µM | [2] 19 µM | [3] 13.8 µM | [4] 10.6 µM | [5] 14.8 µM | [6] 19.1 µM | [7] 8.71 µM | [8] 67.3 µM | [9] 15 µM | [11] 30 µM | [12] 19.5 µM | [13] 25 µM | [14] 20.9 µM | [15] 25.1 µM | [16] 7.91 µM | [17] 14.8 µM | [18] 28 µM | [19] 49 µM

NNC(=O)c1c(-c2cccnc2)cnc2ccccc12
inactive: [1] > 100 µM | [2] > 100 µM | [3] > 100 µM | [4] > 100 µM | [5] > 100 µM | [6] > 100 µM | [7] > 100 µM | [8] > 100 µM | [9] > 100 µM | [11] > 100 µM | [12] > 100 µM | [13] > 100 µM | [14] > 100 µM | [15] > 100 µM | [16] > 100 µM | [17] > 100 µM | [18] 45.6 µM | [19] 4.02 µM
> 100 µM: [10]

O=C1Nc2ccc(S(=O)(=O)O)cc2/C1=N/Nc1ccccc1[N+](=O)[O-]
inactive: [1] > 100 µM | [2] > 100 µM | [3] > 100 µM | [4] > 100 µM | [5] > 100 µM | [6] > 100 µM | [7] 35 µM | [8] > 100 µM | [9] > 100 µM | [11] > 100 µM | [12] > 100 µM | [13] > 100 µM | [14] > 100 µM | [15] 42.9 µM | [16] > 100 µM | [17] > 100 µM | [18] > 100 µM | [19] 97.9 µM
84.1 µM: [10]
